The text below walks through data of paper PMC5031696, “Synthesis, Biodistribution and In vitro Evaluation of Brain Permeable High Affinity Type 2 Cannabinoid Receptor Agonists [^11C]MA2 and [^18F]MA3” (Frontiers in Neuroscience, 2016).

On the set-up of data set [1]: method as in Horti et al., 2010. The conditions noted are these: rat brain, 2 min post injection; ref Horti et al., 2010; cited from earlier work.
Data set [2] in a line: plasma radiometabolite analysis. The conditions noted are these: mouse plasma, average of 2 assays. The class given is in vivo. On the procedure:
The fraction of radiometabolites in mouse plasma at 2 and 30 min after injection of the tracer was determined by RP-HPLC analysis to investigate the in vivo stability of [^11C]MA2. […] At 2 min post injection of [^11C]MA2, 88% (n = 2) of the recovered radioactivity was assigned to the intact parent tracer. The percentage of intact [^11C]MA2 decreased to 34% at 30 min post injection of the tracer. All detected radiometabolites were more polar than the intact tracer.
After i.v. administration of [^11C]MA2 (~ 9.25 MBq) via a lateral tail vein to anesthetized NMRI mice (isoflurane 2% in oxygen), the mice were decapitated at 2 or 30 min post injection (n = 2 per time point). […] The isolated plasma was spiked with authentic non-radioactive MA2 (15 μL of 1 mg/mL solution in CH3CN) and analyzed by RP-HPLC on a Chromolith RP C18 column (3 mm x 100 mm; Merck) eluted with gradient mixtures of CH3CN (A) and 0.05 M NaOAc pH 5.5 (B) (0–5 min: Isocratic 100% B, flow rate of 0.5 mL/min; 5–10 min: Linear gradient 100 B to 10% B, flow rate of 1 mL/min; 10–13 min: Isocratic 10% B, flow rate of 1 mL/min; 13–13.1 min: Linear gradient 10 B to 100% B, flow rate of 0.5 mL/min; 13.1–15 min: Isocratic 100% B, flow rate of 0.5 mL/min). […] The radioactivity in all fractions was measured using an automated gamma counter. […]

The nature of data set [3]: biodistribution studies in male NMRI mice. It counts as in vivo, mouse. The conditions noted are these: NMRI mice; for % ID bladder + urine / % ID blood / SUV blood / % ID brain / SUV brain / % ID heart / SUV heart / % ID intestines / % ID kidneys / SUV kidneys / % ID liver / SUV liver / % ID lungs / SUV lungs / % ID pancreas / SUV pancreas / % ID spleen / SUV spleen / % ID stomach: i.v. As to the method:
The tissue distribution and kinetics of [^11C]MA2 and [^18F]MA3 were studied in male NMRI mice at 2, 10, 30, and 60 min post injection of the tracer. The results of the biodistribution studies are presented in Table 1 ([^11C]MA2) and Table 2 ([^18F]MA3) as percentage of injected dose (% ID) and standard uptake value (SUV).
The biodistribution of [^11C]MA2 and [^18F]MA3 was studied in normal male Naval Medical Research Institute (NMRI) mice. A solution of HPLC-purified [^11C]MA2 or [^18F]MA3 was diluted with saline to obtain an ethanol concentration < 10%. Mice were anesthetized with isoflurane (2% in oxygen) and injected intravenously (i.v.) with [^11C]MA2 (~ 9.25 MBq) or [^18F]MA3 (~ 0.92 MBq) via a lateral tail vein. The mice were sacrificed by decapitation at 2, and 60 min post injection (for [^11C]MA2, n = 4) and at 2, 10, 30, or 60 min post injection (for [^18F]MA3, n = 3 or 4 per time point) and dissected. Blood, organs, and other body parts were collected in tared tubes and the radioactivity in each tube was measured using an automated gamma counter. The tubes containing selected organs and blood were weighed. For calculation of total radioactivity in blood, blood mass was assumed to be 7% of the body mass (Fritzberg et al., [1982]). Quantitative data are expressed as mean ± standard deviation (SD). Means were compared using an unpaired two-tailed student t-test. Values were considered statistically significant for P ≤ 0.05.

Where “and” joins values, the source holds several entries; their conditions need not be identical. Equal entries are not always repeated.

For `Cc1sc(=NC(=O)C2C(C)(C)C2(C)C)n(CCO[11CH3])c1C` [[^11C]A-836339], the SUV in brain in data set [1] is listed as ~ 0.5.

With `[11CH3]Oc1ccc2ncc(NCCCc3nc(-c4ccc(F)cc4Cl)no3)cc2c1` [[^11C]MA2], in data set [2] (2 min post injection), the “% of intact tracer in blood plasma” value is 88%. Also, the “% of intact tracer in blood plasma” value in data set [2] (30 min post injection) stood at 34%. Also, the “accumulation in the spleen” value in data set [3] was “no accumulation”. In data set [3] (2 min post injection), the “% ID bladder + urine” value is 0.2 ± 0.1 % ID; the “% ID blood” value was determined as 5.8 ± 0.4 % ID; the SUV blood came out at 0.8 ± 0.1; the “% ID brain” value was 1.6 % ID and 1.6 ± 0.5 % ID. Moreover, in data set [3] (2 min post injection), the SUV brain came to 1.8 ± 0.2, the “% ID heart” value is reported as 1.4 ± 0.4 % ID, the SUV heart was determined as 3.3 ± 0.6 and the “% ID intestines” value is recorded as 9.7 ± 0.4 % ID. In data set [3] (2 min post injection), the “% ID kidneys” value was found to be 8.3 ± 1.6 % ID, the SUV kidneys was 5.1 ± 0.7, the “% ID liver” value amounted to 28.3 ± 2.9 % ID and the SUV liver is on record as 6.0 ± 0.1. Moreover, in data set [3] (2 min post injection), the “% ID lungs” value was determined as 1.4 ± 0.3 % ID, the SUV lungs is given as 2.3 ± 0.4, the “% ID pancreas” value came to 1.6 ± 0.8 % ID and the SUV pancreas stood at 2.2 ± 1.0. Further, in data set [3] (2 min post injection), the “% ID spleen” value was found to be 0.5 ± 0.2 % ID, the SUV spleen came to 2.0 ± 0.2 and the “% ID stomach” value turned out to be 1.3 ± 0.3 % ID. In data set [3] (60 min post injection), the “% ID bladder + urine” value is 4.5 % ID and 4.5 ± 1.0 % ID; the “% ID blood” value is listed as 0.7 ± 0.1 % ID; the SUV blood is given as 0.1 ± 0.0; the “% ID brain” value is 0.1 ± 0.0 % ID. Further, in data set [3] (60 min post injection), the SUV brain is given as 0.1 ± 0.0; the “% ID heart” value came out at 0.1 ± 0.0 % ID; the SUV heart is listed as 0.1 ± 0.0; the “% ID intestines” value was 63.8 % ID and 63.8 ± 2.9 % ID. Further, in data set [3] (60 min post injection), the “% ID kidneys” value worked out at 1.0 ± 0.3 % ID; the SUV kidneys is listed as 0.6 ± 0.1; the “% ID liver” value came to 9.1 ± 3.0 % ID; the SUV liver was 2.0 and 2.0 ± 0.5. For the same molecule, in data set [3] (60 min post injection), the “% ID lungs” value is recorded as 0.1 ± 0.0 % ID, the SUV lungs turned out to be 0.2 ± 0.0, the “% ID pancreas” value stood at 0.2 ± 0.1 % ID and the SUV pancreas is on record as 0.3 ± 0.0. Besides, in data set [3] (60 min post injection), the “% ID spleen” value was determined as 0.03 ± 0.01 % ID, the SUV spleen came out at 0.2 ± 0.0 and the “% ID stomach” value came out at 4.2 ± 3.9 % ID. The “blood % ID 2 min/60 min ratio” value in data set [3] (clearance from blood) was 8.6. Further, the “brain % ID 2 min/60 min ratio” value in data set [3] (wash-out from brain) is on record as 18.4.
